The results in this text go back to ChEMBL document CHEMBL1135548 (J Med Chem, 2002).

What all share (experiment): biochemical
Assay [1] deals with T1, Adenosine receptor A2a (Homo sapiens, UniProt P29274).
Assay [2] concerns the target T2, Adenosine receptor A1 (Homo sapiens, UniProt P30542).
T2 sequence (P30542 whole entry): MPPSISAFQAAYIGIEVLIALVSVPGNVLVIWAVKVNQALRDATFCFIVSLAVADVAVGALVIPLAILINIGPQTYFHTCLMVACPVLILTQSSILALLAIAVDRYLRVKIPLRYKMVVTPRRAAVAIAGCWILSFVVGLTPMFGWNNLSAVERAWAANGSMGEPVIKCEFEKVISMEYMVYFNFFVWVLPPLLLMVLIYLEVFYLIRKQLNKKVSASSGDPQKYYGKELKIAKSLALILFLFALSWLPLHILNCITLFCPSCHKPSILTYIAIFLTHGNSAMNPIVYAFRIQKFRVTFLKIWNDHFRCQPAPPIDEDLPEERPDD

Assay [3] concerns the target T3, Adenosine receptor A2b (Homo sapiens, UniProt P29275).
T3 sequence (P29275 whole entry): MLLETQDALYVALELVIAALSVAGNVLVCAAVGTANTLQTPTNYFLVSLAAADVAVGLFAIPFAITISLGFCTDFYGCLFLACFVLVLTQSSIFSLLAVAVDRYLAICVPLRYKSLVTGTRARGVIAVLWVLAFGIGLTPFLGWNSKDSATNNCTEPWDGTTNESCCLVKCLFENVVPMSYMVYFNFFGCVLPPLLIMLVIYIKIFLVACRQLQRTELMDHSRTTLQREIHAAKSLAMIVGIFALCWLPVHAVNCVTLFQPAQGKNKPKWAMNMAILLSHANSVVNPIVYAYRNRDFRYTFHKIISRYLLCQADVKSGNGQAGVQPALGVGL
Description: Inhibition of [3H]DPCPX binding to human Adenosine A2B receptor expressed in HEK cells; range 640-1100

Assay [4] concerns the target T1, Adenosine receptor A2a. This is another data set of the same source.
Description: Inhibition of [3H]CGS-21680 binding to human Adenosine A2a receptor expressed in HEK293 cells; Range 438-749
In assay [5] the target is T3, Adenosine receptor A2b. This is another data set of the same source.
Description: Inhibition of [3H]DPCPX binding to human Adenosine A2B receptor expressed in HEK cells; Range 3580-12400
In assay [6] the target is T2, Adenosine receptor A1. This is another data set of the same source.
Assay [7] concerns the target T2, Adenosine receptor A1. This is another data set of the same source.
Description: Inhibition of [3H]DPCPX binding to human Adenosine A1 receptor expressed in CHO cells; Range 256-620
Assay [8] addresses T3, Adenosine receptor A2b. This is another data set of the same source.
Assay [9] deals with T1, Adenosine receptor A2a. The source holds these as a separate data set.
In assay [10] the target is T2, Adenosine receptor A1. The assay is classed as cell-based, CHO.
Description: Inhibition of [3H]DPCPX binding to human Adenosine A1 receptor expressed in CHO cells
For assay [11], the target named is T1, Adenosine receptor A2a. This is another data set of the same source.
Description: Inhibition of [3H]CGS-21680 binding to human Adenosine A2A receptor expressed in HEK293 cells

The structures appear in SMILES notation.

T1 sequence (P29274 whole entry): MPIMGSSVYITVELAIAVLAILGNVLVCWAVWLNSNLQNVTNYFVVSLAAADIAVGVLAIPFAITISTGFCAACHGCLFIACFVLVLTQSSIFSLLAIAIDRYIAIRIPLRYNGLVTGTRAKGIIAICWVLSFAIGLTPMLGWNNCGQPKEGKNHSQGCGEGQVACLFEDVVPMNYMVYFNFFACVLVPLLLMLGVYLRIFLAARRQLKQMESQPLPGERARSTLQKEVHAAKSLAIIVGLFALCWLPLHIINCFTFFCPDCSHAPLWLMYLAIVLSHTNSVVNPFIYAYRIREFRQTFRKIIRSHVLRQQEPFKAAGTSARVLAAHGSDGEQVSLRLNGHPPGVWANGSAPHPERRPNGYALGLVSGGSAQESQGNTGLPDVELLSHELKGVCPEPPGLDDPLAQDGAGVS

In assay [1], `CCCCCc1nc2nc[nH]c2c2nc(-c3ccccc3)nn12` returned a half-inhibitory concentration (IC50) of 200 nM. Same read-out and setting: the value for `CCCCc1nc2nc[nH]c2c2nc(-c3cccc(Cl)c3)nn12` was 56 nM; that for `CCCCc1nc2[nH]cnc2c2nc(-c3cccc(C)c3)nn12` was 188 nM. Turning to `CCCCc1nc2nc[nH]c2c2nc(-c3ccc(OCC)cc3)nn12`, in [1], the IC50 stood at 3800 nM. In addition, the figures for the Ki in assay [2], in assay [3] and in assay [4] were 413 nM, 838 nM and 572 nM, respectively.

`CCCCc1nc2[nH]cnc2c2nc(Cc3ccccc3)nn12` showed an IC50 in [1] of 47 nM. That is a double-digit nanomolar value.

`CCCCc1nc2nc[nH]c2c2nc(-c3ccc(Br)cc3)nn12` yielded a concentration for half-maximal inhibition (IC50) in assay [1] of 3300 nM.

`CCCCc1nc2[nH]cnc2c2nc(-c3cccc(OC)c3)nn12`: the midpoint of inhibition in assay [1], the IC50, lay at 67 nM. On the same count and under the same terms, the same measure for `CCCCc1nc2[nH]cnc2c2nc(-c3cccnc3)nn12`: 900 nM; for `CCCCCCc1nc2nc[nH]c2c2nc(-c3ccccc3)nn12`: 7800 nM; for `CCCCc1nc2[nH]cnc2c2nc(C)nn12`: 46 nM. On the same count and under the same terms, the value for `CCCCc1nc2nc[nH]c2c2nc(-c3ccc(O)cc3)nn12` was 58 nM.

For the molecule `CCCCc1nc2[nH]cnc2c2nc(-c3ccc(N(C)C)cc3)nn12`, the Ki turned out to be 6.66 µM in [5] and 1310 nM in assay [6].

In assay [1], `CCCc1nc2nc[nH]c2c2nc(-c3ccccc3)nn12` had an IC50 of 120 nM. For `CCCCc1nc2[nH]cnc2c2nc(-c3ccco3)nn12`, inhibition in assay [1] was half-maximal at 210 nM (IC50). Same read-out and setting: the value for `CCc1nc2[nH]cnc2c2nc(-c3ccccc3)nn12` was 360 nM.

For the molecule `CCCCc1nc2[nH]cnc2c2nc(-c3ccc(OC)cc3)nn12`, in assay [1], it took 1600 nM to reach half-maximal inhibition (IC50). Further, the Ki is 398 nM in assay [7], 1030 nM in [8] and 892 nM in [9]. Turning to `CCCCc1nc2[nH]cnc2c2nc(-c3ccc(C)cc3)nn12`, half-maximal inhibition in assay [1] (IC50) was put at 180 nM. In turn, `CCCCc1nc2nc[nH]c2c2nc(-c3ccc(F)cc3)nn12` registered an IC50 in assay [1] of 510 nM. This IC50 lies about 2.8-fold higher than the previous one. On the same count and under the same terms, the value for `CCCCc1nc2[nH]cnc2c2nc(-c3cc(OC)c(OC)c(OC)c3)nn12` was 2500 nM.

The molecule `Cc1nc2[nH]cnc2c2nc(-c3ccccc3)nn12` displayed a half-inhibitory concentration (IC50) in [1] of 550 nM. This IC50 lies about 4.5-fold lower than the previous one. For the molecule `COc1ccc(-c2csc3nc(=O)cc(N)n23)cc1`, the Ki in assay [10] and in [11] was greater than 10 µM in each case.

In general, IC50 refers to the concentration at which inhibition is half-maximal. A word on the Ki: it is a dissociation constant, usually derived from enzyme kinetics or from competition with a known ligand. The low end stands for a stronger hold on the target, the high end for a looser hold on the target.
